Assay results taken from patent US8193364B2, “Insecticidal N-substituted (6-haloalkylpyridin-3-yl)-alkyl sulfoximines” (Dow AgroSciences, LLC., priority 2006, dated 2012).

Experiments:
Format in all cases: in vivo
[1] = tested on: Cotton Aphid (Aphis gossypii); experiment: Cotton aphid foliar spray assay on squash; settings: 72 h, read-out: % Control of cotton aphid on squash (foliar spray)
Method: Squash with fully expanded cotyledon leaves were trimmed to one cotyledon per plant and infested with cotton aphid (wingless adult and nymph) 1 day prior to chemical application. Each plant was examined before chemical application to ensure proper infestation (ca. 30-70 aphids per plant). Compounds (2 mg) were dissolved in 2 ml of acetone:methanol (1:1) solvent, forming stock solutions of 1000 ppm. The stock solutions were then diluted with a diluent consisting 80 parts of 0.025% Tween 20 in H2O and 20 parts of acetone:methanol (1:1). A hand-held Devilbiss sprayer was used to apply the test solutions until runoff to both sides of the squash cotyledon leaves. Four plants (4 replications) were used for each concentration of each compound. Reference plants (solvent check) were sprayed with the diluent only. Treated plants were held in a holding room for 3 days at approximately 23° C. and 40% RH before the number of live aphids on each plant was recorded. Insecticidal activity was measured by Corrected % Control using Abbott's correction formula and presented in Table 1: Corrected % Control=100*(X−Y)/X • where X=No. of live aphids on solvent check plants • Y=No. of live aphids on treated plants

[2] = tested on: Cotton Aphid (Aphis gossypii); experiment: Cotton aphid seed coating assay on squash; settings: 10% SC formulation, infested 13 days after planting, counted 3 days later
Method: Compound 2 was tested in an assay designed to evaluate its systemic activity for control of cotton aphid through seed-coating prior to planting. The crop used in this assay was a hybrid squash (var. Pic-N-Pic). Test compound was formulated in a 10% SC formulation. For the 1 mg/seed treatment, the original 10% formulation was used. For the 0.1 mg/seed treatment, the 10% formulation were diluted 10× with DI water before application. Ten squash seeds were used for each treatment. Seeds were placed on waxed paper and a pipette was used to apply the original or diluted formulations to each seed. One half (5 ul) of the sample was spread onto one side of a seed. Once dried (approximately 1 hr), the seed was flipped over and the 2nd half of sample was spread over the other side. The air-dried, treated seeds were individually planted into 3 inch pots containing metro mix. The pots were placed on a California cart and moved into the greenhouse for sub watering only. Thirteen days later, when the seedlings were approximately 9 inch tall with three expanding true leaves, the 1st leaf was infested with approximately 40 wingless aphids. The infested plants were kept in an environmental holding room (23 C, 40% RH, 16 hr light: 8 hr dark) for three days before the number of live aphids was counted under a microscope. […]

[3] = tested on: Eastern Subterranean Termite (Reticulitermes flavipes); experiment: Eastern subterranean termite filter paper assay
Method: Activity of Compound 2 was evaluated for its activity on Eastern subterranean termite. Technical material of the test compound was formulated in acetone on a wt/wt basis to deliver 1000, 500, 200, 50, 12.5, 3.12 and 0.78 ppm to 42.5 mm Whatman No. 1 filter papers per 200 ul of pipetted solution. Each test concentration was applied to six filter papers (6 reps). Six acetone-only control units and six DI water-only control units were also prepared. The filter papers were dried overnight in the fume hood before they were placed into 60×15 mm Fisher Brand plastic Petri dishes. A volume of 200 ul DI water was pipetted onto each filter paper at the time of test set-up, just prior to infesting with termites. Ten worker termites were added to each Petri dish and covered. The infested Petri dishes were put in the laboratory Conviron at 28° C. and 60% RH. Termite mortality was recorded at 1, 2, 4, 7, and 10 days after infestation (DAI). Throughout the duration of the test, an average of 150 ul of DI water was added daily to the filter papers to retain moisture.

[4] = tested on: Brown Dog Tick (Rhipicephalus sanguineus); experiment: Brown dog tick glass plate assay; settings: 48-hour observation
Method: Compound 2 was evaluated in a dose response series to establish the range of activity of the test compound. Technical material was dissolved in acetone and diluted with the same solvent to obtain the test concentrations. Tick bioassays were conducted by applying 1.0 ml of the test substance to clean dry glass plates confined by 10 cm grease pencil circles drawn on the plates and spread evenly with an acid brush. The plates were allowed to dry for at least 1 hour before adult ticks were confined to the treated substrate using 10 cm Petri dish lids. Each treatment was replicated 5 times. Approximately 5 adult ticks were placed into each replicate. Mortality was assessed at 2, 8, 24 and 48 hours after introduction of the ticks into the test system. The mean percent mortality for each dosage group and time interval was determined and results from the 48-hour observation are presented in Table 10.

CC(c1ccc(C(F)(F)F)nc1)S(C)(=O)=NC#N (stereo not shown) [Compound 2, [1-(6-trifluoromethylpyridin-3-yl)ethyl](methyl)-oxido-λ^4-sulfanylidenecyanamide]
pest or weed control at 0.049 ppm [1]: 90 to 100% | pest or weed control at 0.195 ppm [1]: 90 to 100% | pest or weed control at 0.781 ppm [1]: 90 to 100% | pest or weed control at 3.13 ppm [1]: 90 to 100% | % Control, root uptake systemic, cotton aphid on squash ([2]; seed coating 0.1 mg/seed): 99.7% | % Control, root uptake systemic, cotton aphid on squash ([2]; seed coating 1 mg/seed): 100% | mortality at 0.78 ppm ([3]; 1 DAI): 7% | mortality at 0.78 ppm ([3]; 2 DAI): 17% | mortality at 0.78 ppm ([3]; 4 DAI): 58% | mortality at 0.78 ppm ([3]; 7 DAI): 73% | mortality at 0.78 ppm ([3]; 10 DAI): 80% | mortality at 3.13 ppm ([3]; 1 DAI): 25% | mortality at 3.13 ppm ([3]; 2 DAI): 48% | mortality at 3.13 ppm ([3]; 4 DAI): 67% | mortality at 3.13 ppm ([3]; 7 DAI): 83% | mortality at 3.13 ppm ([3]; 10 DAI): 87% | mortality at 12.5 ppm ([3]; 1 DAI): 48% | mortality at 12.5 ppm ([3]; 2 DAI): 67% | mortality at 12.5 ppm ([3]; 4 DAI): 90% | mortality at 12.5 ppm ([3]; 7 DAI): 100% | mortality at 12.5 ppm ([3]; 10 DAI): 100% | mortality at 50 ppm ([3]; 1 DAI): 55% | mortality at 50 ppm ([3]; 2 DAI): 72% | mortality at 50 ppm ([3]; 4 DAI): 98% | mortality at 50 ppm ([3]; 7 DAI): 100% | mortality at 50 ppm ([3]; 10 DAI): 100% | mortality at 200 ppm ([3]; 1 DAI): 55% | mortality at 200 ppm ([3]; 2 DAI): 72% | mortality at 200 ppm ([3]; 4 DAI): 80% | mortality at 200 ppm ([3]; 7 DAI): 100% | mortality at 200 ppm ([3]; 10 DAI): 100% | mortality at 500 ppm ([3]; 1 DAI): 63% | mortality at 500 ppm ([3]; 2 DAI): 82% | mortality at 500 ppm ([3]; 4 DAI): 98% | mortality at 500 ppm ([3]; 7 DAI): 100% | mortality at 500 ppm ([3]; 10 DAI): 100% | mortality at 1000 ppm ([3]; 1 DAI): 87% | mortality at 1000 ppm ([3]; 2 DAI): 90% | mortality at 1000 ppm ([3]; 4 DAI): 100% | mortality at 1000 ppm ([3]; 7 DAI): 100% | mortality at 1000 ppm ([3]; 10 DAI): 100% | mortality at 50 ppm ([4]; 50 ppm): 28% | mortality at 500 ppm ([4]; 500 ppm): 61%
